US20240131044A1, “METHOD FOR TREATING CANCER” (M.T.3, Inc., priority 2022, published 2024)

Test system: Melanoma developing cells (CML6M)
Experiment: Colony formation, survival fraction of canine melanoma cells
Assay type: cell-based
Description: An anti-cancer agent and a pharmaceutical composition were administered to test cells and then the cells were cultured. Then, after colonies were formed, the number of colonies was counted. Here, samples in which the concentration of the anti-cancer agent to be administered was varied were prepared, and in each sample, the survival fraction of the cells compared with the case where cells were cultured without administration of the pharmaceutical composition was measured. Regarding the type of anti-cancer agent to be administered, a predetermined anti-cancer agent was selected depending on the type of administration target cells. Note that cells that were cultured without administration of the pharmaceutical composition and the anti-cancer agent were used as a control. Hereinafter, these steps will be described.
Here, CHO cells, V79 cells, and canine-derived cancer cells were prepared as the test cells. The CHO cells are ovarian cells derived from Chinese hamsters, and the V79 cells are fibroblasts derived from the lungs of Chinese hamsters. Melanoma developing cells (CML6M) and soft tissue sarcoma developing cells (STSA-1) were used as the cancer cells.
The cancer cells were prepared by being cultured using an αMEM culture medium supplemented with 10% serum and an antibiotic. The cancer cells were prepared such that, when the concentration of the cells in a cell suspension obtained by subjecting the cultured cells to PBS washing and trypsin treatment, the concentration was within a predetermined concentration range. Here, the predetermined concentration ranges were 300 cells/well, 100 to 150 cells/well, and 500 to 1000 cells/well for the CHO/V79 cells, the melanoma cells, and the soft tissue sarcoma cells, respectively.
Next, the cancer cells were cultured in culture environments to which the anti-cancer agent was added at various concentrations, and were then allowed to form colonies. The culture periods for colony formation were a week, 10 days, and 14 days for CHO and V79, melanoma, and soft tissue sarcoma, respectively. After colonies were formed, washing using a physiological saline solution, fixation using 100% ethanol, and staining using 0.1% crystal violet were performed, and then the number of colonies per well was counted under a microscope. Note that, here, the colony was defined as containing 50 or more cells. Moreover, mitomycin C, doxorubicin, bleomycin, camptothecin, etoposide, taxol, methyl methanesulfonate, and cisplatin were used as the anti-cancer agent.
A graph with the horizontal axis representing the concentration of the anti-cancer agent and the vertical axis representing the survival fraction was created by plotting the survival fraction measurement results relative to the SQAP administration amounts, and the effect of the addition of SQAP on the survival fraction was examined. Hereinafter, the results from each anti-cancer agent will be shown in a table and described.
Canine-derived melanoma cells and soft tissue sarcoma cells were used as the cells, and doxorubicin was used as the anti-cancer agent. […] Also, the concentration of the doxorubicin administered to the soft tissue sarcoma cells was set to 0 nM, 5 nM, 10 nM, and 15 nM. […] In Table 2, survival fractions in the case where SQAP was not administered are shown with a solid line, survival fractions in the case where SQAP was administered at a concentration of 10 μM are shown with a broken line, survival fractions in the case where SQAP was administered at a concentration of 20 μM are shown with a 1-dot chain line, and survival fractions in the case where SQAP was administered at a concentration of 30 μM are shown with a 2-dot chain line.
In the above examples, the anti-cancer agent and the pharmaceutical composition were administered to the test cells and then the cells were cultured. […]

Q: Which survival fraction (melanoma cells, doxorubicin 15 nM + SQAP 10 μM) does the source give for `CCCCCCCCCCCCCCCCCC(=O)OCCCO[C@H]1O[C@H](CS(=O)(=O)O)[C@@H](O)[C@H](O)[C@H]1O` [SQAP, sulfoquinovosylacylpropanediol] here?
A: about 10%

Q: And the survival fraction (melanoma cells, doxorubicin 15 nM + SQAP 20 μM)?
A: about 3%

Q: What about the survival fraction (melanoma cells, doxorubicin 15 nM + SQAP 30 μM) of the same compound?
A: about 0.4%

Q: What about the survival fraction (melanoma developing cells, SQAP 10 μM alone) of the same compound?
A: about 90%

Q: And the survival fraction (melanoma developing cells, SQAP 20 μM alone)?
A: about 85%

Q: And the survival fraction (melanoma developing cells, SQAP 30 μM alone)?
A: about 60%

Q: And the survival fraction (melanoma developing cells, doxorubicin 10 μM + SQAP 10 μM (as restated in Example 10))?
A: about 10%

Q: What about the survival fraction (melanoma developing cells, doxorubicin 10 μM + SQAP 20 μM (as restated in Example 10)) of the same compound?
A: about 3%

Q: And the survival fraction (melanoma developing cells, doxorubicin 10 μM + SQAP 30 μM (as restated in Example 10))?
A: about 0.4%
